Source: patent US9597407B2, “Targeted antimicrobial moieties” (C3 Jian, Inc., priority 2009, dated 2017)
Entries after “also recorded” stand apart in the source; their conditions may differ.

Tested on: bacteria
Test: Binding of targeting peptides to microorganisms (Table 3)
Details: preferably 1x PBS
[1] = peptide binding in aqueous buffers varied by peptide solubility
[2] = microorganism bound by the targeting peptide, binding in aqueous buffers chosen by peptide solubility
[3] = peptide binding in aqueous buffers that varied depending on peptide solubility
[4] = microorganism the targeting peptide binds, binding in aqueous buffers that varied with peptide solubility

Row | Substance | Target(s) (microorganism bound by the targeting peptide) [1] | Target(s) [2] | other results
1 | 1T-9 (WAWAESPRCVSTRSNIHALAFRVEVAALT; Peptide with targeting and/or antimicrobial activity) [Peptide 1T-9] | M. xanthus |  | 
2 | 1T-15 (DVILRVEAQ; Peptide with targeting and/or antimicrobial activity) [Peptide 1T-15] | S. mutans |  | 
3 | PF-152 (VGYFIWKDSHSRKG; Peptide with targeting and/or antimicrobial activity) |  | S. epidermidis and C. albicans and MRSA and E. faecalis and C. jeikeium | 
4 | PF-786 (LSERERRRLKRGII; Peptide with targeting and/or antimicrobial activity) |  |  | Target(s) (microorganism bound by the targeting peptide) [3]: Mycobacteria spp.
5 | PF-493 (PGAFFFCRGRGCWCGIGW; Peptide with targeting and/or antimicrobial activity) |  |  | Target(s) (microorganisms bound by the targeting peptide) [3]: S. mutans; also recorded: B. subtilis; also recorded: E. coli
6 | 1T-66 (DTDCLSRAYAQRIDELDKQYAGIDKPL; Peptide with targeting and/or antimicrobial activity) [Peptide 1T-66] | S. mutans; also recorded: S. aureus; also recorded: S. epidermidis; also recorded: C. jeikeium; also recorded: C. xerosis; also recorded: C. striatum; also recorded: P. aeruginosa |  | 
7 | PF-506 (SGRGFALIVVLFILLIIVGAACIR; Peptide with targeting and/or antimicrobial activity) |  |  | Target(s) (microorganisms bound by the targeting peptide) [3]: S. mutans; also recorded: E. coli
8 | PF-483 (EDNKDKKDKKDK; Peptide with targeting and/or antimicrobial activity) |  |  | Target(s) (microorganisms bound by the targeting peptide) [3]: P. mirabilis; also recorded: C. jeikeium; also recorded: C. jejuni
9 | PF-C045 (FREGMGWPLSNEGSPTAPLPKHRNQV; Peptide with targeting and/or antimicrobial activity) |  |  | Target(s) (microorganism bound by the targeting peptide) [3]: A. naeslundii; also recorded: T. denticola
10 | PF-766 (DAYYAQLRKQKEIEEGA; Peptide with targeting and/or antimicrobial activity) |  |  | Target(s) (microorganism bound by the targeting peptide) [3]: S. epidermidis and M. luteus and C. albicans and MRSA and E. faecalis and C. jeikeium
11 | PF-674 (DGCDSEPALTYR; Peptide with targeting and/or antimicrobial activity) |  |  | Target(s) (microorganism bound by the targeting peptide) [3]: S. mutans; also recorded: E. coli
12 | PF-197 (CNALLRRGHPPSAL; Peptide with targeting and/or antimicrobial activity) |  | S. epidermidis; also recorded: M. luteus; also recorded: C. albicans; also recorded: E. faecalis; also recorded: C. jejuni | 
13 | 1T-122 (GAIPDPVTHRVDWEEDHQTRPSR; Peptide with targeting and/or antimicrobial activity) [Peptide 1T-122] | S. mitis |  | 
14 | PF-161 (RGRALASTATTRPARRRR; Peptide with targeting and/or antimicrobial activity) |  | S. epidermidis; also recorded: M. luteus; also recorded: E. coli; also recorded: C. jejuni | 
15 | 1T-40 (QRVSLWSEVEHEFR; Peptide with targeting and/or antimicrobial activity) [Peptide 1T-40] | S. mutans; also recorded: P. aeruginosa |  | 
16 | 1T-70 (NRQAQGERAHGEQQG; Peptide with targeting and/or antimicrobial activity) [Peptide 1T-70] | S. aureus; also recorded: C. jeikeium; also recorded: P. aeruginosa |  | 
17 | PF-678 (RDRRWTRRDMYDWLESARV; Peptide with targeting and/or antimicrobial activity) |  |  | Target(s) (microorganism bound by the targeting peptide) [3]: Mycobacteria spp
18 | PF-151 (EEYPARVPLSGEDVTEARRH; Peptide with targeting and/or antimicrobial activity) |  | S. epidermidis and MRSA and E. faecalis and C. jeikeium | 
19 | 1T-12 (FGNIFKGLKDVIETIVKWTAAK; Peptide with targeting and/or antimicrobial activity) [Peptide 1T-12] | C. xerosis; also recorded: C. striatum; also recorded: S. epidermidis; also recorded: S. mutans |  | 
20 | PF-C080 (INIPGLF; Peptide with targeting and/or antimicrobial activity) |  |  | Target(s) (microorganism bound by the targeting peptide) [3]: A. naeslundii; also recorded: F. nucleatum; also recorded: S. mutans
21 | 1T-291 (DMKIIKLYIKILSFLFIKYCNKKLNSVKLKA; Peptide with targeting and/or antimicrobial activity) [Peptide 1T-291] |  |  | Target(s) [4]: A. naeslundii; also recorded: F. nucleatum; also recorded: P. gingivalis; also recorded: T. denticola; also recorded: S. mitis; also recorded: S. mutans; also recorded: S. oralis
22 | PF-181 (GIAPRRNEWGAVGGR; Peptide with targeting and/or antimicrobial activity) |  | S. epidermidis and M. luteus and E. coli and MRSA and E. faecalis and C. jeikeium | 
23 | 1T-114 (RQAPGPGLVTITAACSAPGSRSR; Peptide with targeting and/or antimicrobial activity) [Peptide 1T-114] | A. naeslundii; also recorded: P. gingivalis; also recorded: S. epidermidis; also recorded: S. gordonii; also recorded: S. mitis; also recorded: S. mutans; also recorded: S. oralis; also recorded: S. sanguinis |  | 

Row | Substance | Target(s) (microorganism bound by the targeting peptide) [1] | Target(s) [2] | other results
24 | PF-101 (DPVPERQEQACACHRTAKPGK; Peptide with targeting and/or antimicrobial activity) |  | S. mutans | 
25 | PF-568 (TQAVQVKTAQAQQQ; Peptide with targeting and/or antimicrobial activity) |  |  | Target(s) (microorganisms bound by the targeting peptide) [3]: S. epidermidis
26 | 1T-90 (RNVIGQVL; Peptide with targeting and/or antimicrobial activity) [Peptide 1T-90] | S. gordonii; also recorded: S. mitis; also recorded: S. mutans; also recorded: S. oralis; also recorded: S. sanguinis |  | 
27 | PF-368 (MLKQTA; Peptide with targeting and/or antimicrobial activity) |  | C. jeikeium; also recorded: C. jejuni | 
28 | 1T-207 (SPLEKYGTGSMTALTFLLGCCLLVLSKKSR; Peptide with targeting and/or antimicrobial activity) [Peptide 1T-207] |  |  | Target(s) [4]: F. nucleatum; also recorded: S. sanguinis
29 | PF-174 (RGGDSPARRRPGLAGPGGPG; Peptide with targeting and/or antimicrobial activity) |  | S. epidermidis; also recorded: P. aeruginosa; also recorded: C. jeikeium | 
30 | 1T-170 (AYGKVFSMDIMLSENDKLIVLRISHHSAWH; Peptide with targeting and/or antimicrobial activity) [Peptide 1T-170] | P. gingivalis |  | 
31 | 1T-57 (RLEYRRLETQVEENPESGRRPMRG; Peptide with targeting and/or antimicrobial activity) [Peptide 1T-57] | P. aeruginosa |  | 
32 | 1T-31 (NATGTDIGEVTLTLGRFS; Peptide with targeting and/or antimicrobial activity) [Peptide 1T-31] | S. mutans; also recorded: P. aeruginosa |  | 
33 | 1T-60 (YLTSLGLDAAEQAQGLLTILKG; Peptide with targeting and/or antimicrobial activity) [Peptide 1T-60] | S. aureus; also recorded: S. epidermidis; also recorded: C. jeikeium; also recorded: C. striatum; also recorded: P. aeruginosa |  | 
34 | PF-172 (LTGVRRPWRAPWAGTSGWALR; Peptide with targeting and/or antimicrobial activity) |  | S. epidermidis and M. luteus and E. coli and P. aeruginosa and MRSA and E. faecalis and C. jejuni | 
35 | PF-796 (YTQSNIPTAYALMLSNKDSI; Peptide with targeting and/or antimicrobial activity) |  |  | Target(s) (microorganism bound by the targeting peptide) [3]: S. mutans
36 | 1T-54 (RWVSCNPSWRIQ; Peptide with targeting and/or antimicrobial activity) [Peptide 1T-54] | S. epidermidis; also recorded: C. xerosis; also recorded: C. striatum; also recorded: P. aeruginosa |  | 
37 | PF-259 (LPFSKIGRRVSYKKKDVLKYEQSKTVLNTAQLATV; Peptide with targeting and/or antimicrobial activity) |  | S. epidermidis; also recorded: P. aeruginosa; also recorded: A. baumannii | 
38 | PF-300 (VKDVLLELFNKIIGA; Peptide with targeting and/or antimicrobial activity) |  | B. subtilis; also recorded: C. difficile | 
39 | PF-281 (SYNTYYNKLIHGQRTPDGM; Peptide with targeting and/or antimicrobial activity) |  | S. mutans; also recorded: E. coli | 
40 | PF-C063 (SHFRKGD; Peptide with targeting and/or antimicrobial activity) |  |  | Target(s) (microorganism bound by the targeting peptide) [3]: A. naeslundii; also recorded: F. nucleatum; also recorded: S. mutans
41 | 1T-78 (FFKTIFVLILGALGVAAGLYIEKNYIDK; Peptide with targeting and/or antimicrobial activity) [Peptide 1T-78] | S. pneumoniae |  | 
42 | PF-239 (PKHNVVTGVSVDLDYKP; Peptide with targeting and/or antimicrobial activity) |  | S. mutans; also recorded: E. coli | 
43 | PF-717 (PQSEVTFENIYAPKANGGGLYGI; Peptide with targeting and/or antimicrobial activity) |  |  | Target(s) (microorganism bound by the targeting peptide) [3]: E. coli
44 | PF-216 (ESVDKITEALEEDGFPAKVQ; Peptide with targeting and/or antimicrobial activity) |  | S. mutans; also recorded: E. coli | 
45 | PF-494 (FTEPLRPLQAKGQIISIKPSTSSS; Peptide with targeting and/or antimicrobial activity) |  |  | Target(s) (microorganisms bound by the targeting peptide) [3]: S. mutans
46 | PF-S024 (SKRGRKRKDRRKKKANHGKRPNS; Peptide with targeting and/or antimicrobial activity) |  |  | Target(s) [4]: Corynebacteria
